# According to patent US20240124445A1, “BENZENE RING COMPOUND AND USE THEREOF” (NANJING SHIJIANG MEDICINE TECHNOLOGY CO., LTD, priority 2020, published 2024):
# Read-outs that look alike come from different tables or passages of the source.
# Key:
# NCI-H82 cell = test: Cell viability (Promega CellTiter-Glo) of NCI-H82 cell; assay type: cell-based; details: Homo sapiens
# Procedure: Cell viability was detected using the Promega CellTiter-Glo kit, the kit reflected cell viability by directly measuring intracellular ATP content. Small cell lung cancer cell NCI-H82 (ATCC, No. HTB-175) was cultured in 10% fetal bovine serum-containing RPMI1640 medium (+P/S).
# Cell viability was detected using the Promega CellTiter-Glo kit, the kit reflected cell viability by directly measuring intracellular ATP content.
# Daoy cell was cultured in 10% fetal bovine serum-containing DMEM medium (+P/S), and NCI-H82 cell was cultured in 10% fetal bovine serum-containing RPMI1640 medium (+P/S).
# (§1) Cell viability was detected using the Promega CellTiter-Glo kit, the kit reflected cell viability by directly measuring intracellular ATP content. In the experiment, the IC50 value of different compounds on different tumor cell lines was detected to determine cell lines that were sensitive or insensitive to different compounds.
# (§2) Tumor cells were cultured in 10% FBS-containing medium (+p/s), and incubated for 3 h or the following day, then the gradient diluted compound was added. After 3 days of culture, the relevant IC50 (50% inhibiting concentration) was measured. The name, source and culture conditions of each tumor cell line were as follows:
# Cell line NCI-H82 (ATCC, No. HTB-175) was cultured in 10% fetal bovine serum-containing RPMI1640 medium (+P/S).
# A-375 = test: Cell viability (CellTiter-Glo) of A-375; assay type: cell-based; details: Homo sapiens; A-375, melanoma
# Procedure: (§3) Cell viability was detected using the Promega CellTiter-Glo kit, the kit reflected cell viability by directly measuring intracellular ATP content. Different cancer cells was cultured in medium, the 50% inhibiting concentration (IC50) of compound AB24852 on cancer cells was determined using Promega CellTiter-Glo kit. The name, source and culture conditions of each tumor cell line were as follows:
# Cell line A-375 (ATCC, No. CRL-1619) was cultured in 10% fetal bovine serum-containing DMEM medium (+P/S).
# SNU-398 = test: Cell viability (CellTiter-Glo) of SNU-398; assay type: cell-based; details: Homo sapiens; SNU-398, liver cancer
# Procedure: as §3
# Cell line SNU-398 (ATCC, number CRL-2233) was cultured in 10% fetal bovine serum-containing RPMI1640 medium (+P/S).
# NCI-H1048 = test: Cell viability (CellTiter-Glo) of NCI-H1048; assay type: cell-based; details: Homo sapiens; NCI-H1048, lung cancer
# Procedure: as §3
# Cell line NCI-H1048 (ATCC, No. CRL-5853) was cultured in 5% fetal bovine serum-containing HITES medium (+P/S).
# MIA PaCa-2 = test: Cell viability (CellTiter-Glo) of MIA PaCa-2; assay type: cell-based; details: Homo sapiens; MIA PaCa-2, pancreatic cancer
# Procedure: as §3
# Cell line MIA PaCa-2 (ATCC, No. CRL-1420) was cultured in 10% fetal bovine serum-containing DMEM medium (+P/S).
# 22RV1 = test: Cell viability (CellTiter-Glo) of 22RV1; assay type: cell-based; details: Homo sapiens; 22RV1, prostatic cancer
# Procedure: as §3
# Cell line 22RV1 (ATCC, No. CRL-2505) was cultured in 10% fetal bovine serum-containing RPMI1640 medium (+P/S).
# G-401 = test: Cell viability (CellTiter-Glo) of G-401; assay type: cell-based; details: Homo sapiens
# Procedure: as §3
# Cell line G-401 (ATCC, No. CRL-1441) was cultured in 10% fetal bovine serum-containing McCoy's 5a medium (+P/S).
# as §1
# as §2, with “follows: […]” for “follows:”
# MDA-MB-453 = test: Cell viability (CellTiter-Glo) of MDA-MB-453; assay type: cell-based; details: Homo sapiens
# Procedure: as §3
# Cell line MDA-MB-453 (ATCC, No. HTB-131) was cultured in 10% fetal bovine serum-containing Leibovitz's L-15 medium (+P/S).
# as §1
# as §2, with “follows: […]” for “follows:”
# SU-DHL-2 = test: Cell viability (CellTiter-Glo) of SU-DHL-2; assay type: cell-based; details: Homo sapiens; SU-DHL-2, lymphoma
# Procedure: as §3
# Cell line SU-DHL-2 (ATCC, No. CRL-2956) was cultured in 10% fetal bovine serum-containing RPMI1640 medium (+P/S).
# OCI-AML-4 = test: Cell viability (CellTiter-Glo) of OCI-AML-4; assay type: cell-based; details: OCI-AML-4, leukemia
# Procedure: as §3
# Cell line OCI-AML-4 (DSMZ, No. ACC-729) was cultured in alpha-MEM medium containing 20% fetal bovine serum and 20% volume fraction of 5637 cell line adjusted medium (+P/S).
# SW48 = test: Cell viability (CellTiter-Glo) of SW48; assay type: cell-based; details: Homo sapiens
# Procedure: as §3
# Cell line SW48 (ATCC, No. CCL-231) was cultured in 10% fetal bovine serum-containing Leibovitz's L-15 medium (+P/S).
# as §1
# as §2, with “follows: […]” for “follows:”
# GB-1 = test: Cell viability (CellTiter-Glo) of GB-1; assay type: cell-based; details: Homo sapiens, 72 h; GB-1, 3 days of culture
# Procedure: as §1, §2
# Cell line GB-1 (JCRB, No. IF050489) was cultured in 10% fetal bovine serum-containing DMEM medium (+P/S).
# 786-O = test: Cell viability (CellTiter-Glo) of 786-O; assay type: cell-based; details: Homo sapiens, 786-0, 72 h, 3 days of culture
# Procedure: as §1, §2
# Cell line 786-0 (ATCC, No. CRL-1932) was cultured in 10% fetal bovine serum-containing RPMI1640 medium (+P/S).
# CFPAC-1 = test: Cell viability (CellTiter-Glo) of CFPAC-1; assay type: cell-based; details: Homo sapiens, 72 h; CFPAC-1, 3 days of culture
# Procedure: as §1, §2
# Cell line CFPAC-1 (ATCC, No. CRL-1918) was cultured in 10% fetal bovine serum-containing IMDM medium (+P/S).
# SF-126 = test: Cell viability (CellTiter-Glo) of SF-126; assay type: cell-based; details: Homo sapiens, 72 h; SF-126, 3 days of culture
# Procedure: as §1
# as §2, with “follows: […]” for “follows:”
# [1] = Stability in human liver microsome; assay type: in vitro ADME; details: liver microsomes, pH 7.4, 1.5 μM drug solution, NADPH, 37° C., read-out: Human T1/2
# Procedure: Vortexing for 10 min, the sample was centrifuged with 5594×g for 15 min in centrifuger (Thermo Multifuge×3R). • 10) taking 50 μL supernatant from the centrifuged sample, transferred to 96 well sample plate contain 50 μL water, mixed, and the sample was analyzed using LC-MS/MS.
# [2] = test system: mitochondria permeability transition pore; test: Mitochondria membrane potential difference by TMRM in Daoy cell; assay type: cell-based, human; details: H2O2 +, CsA none
# [3] = test system: mitochondria permeability transition pore; test: Mitochondria membrane potential difference by TMRM in NCI-H82 cell; assay type: cell-based, human; details: H2O2 +, CsA none
# [4] = 72 h, NCI-H82, 3 days of culture, Table 5, read-out: IC50 NCI-H82
# [5] = NCI-H82 cell, Table 1, read-out: IC50
# [6] = 72 h, G-401, 3 days of culture, Table 5, read-out: IC50 G-401
# [7] = 72 h, MDA-MB-453, 3 days of culture, Table 5, read-out: IC50 MDA-MB-453
# [8] = 72 h, SW48, 3 days of culture, Table 5, read-out: IC50 SW48
Structure (SMILES),IC50 (NCI-H82 cell; [4]) [nM],IC50 (NCI-H82 cell; [5]) [nM],IC50 (G-401; [6]) [nM],IC50 (MDA-MB-453; [7]) [nM],IC50 (SW48; [8]) [nM],IC50 (GB-1) [nM],IC50 (786-O) [nM],IC50 (CFPAC-1) [nM],IC50 (SF-126) [nM],half-life at 1 µM [1] [h],further results
O=C(C[n+]1ccc(NCc2ccccc2)cc1)c1cccc([N+](=O)[O-])c1 [AB24852],1460,1460,1020,220,720,> 50000,> 50000,> 50000,> 50000,1.78,"IC50 (A-375): 1300 nM; IC50 (SNU-398): 1700 nM; IC50 (NCI-H1048): 1100 nM; IC50 (MIA PaCa-2): 700 nM; IC50 (22RV1): 2300 nM; IC50 (G-401; G-401, renal carcinoma, Table 2, read-out: IC50): 1000 nM; IC50 (MDA-MB-453; MDA-MB-453, breast cancer, Table 2, read-out: IC50): 200 nM; IC50 (SU-DHL-2): 300 nM; IC50 (OCI-AML-4): 800 nM; IC50 (SW48; SW48, intestine cancer, Table 2, read-out: IC50): 700 nM"
OO [Compound H2O2],,,,,,,,,,,"Relative TMRM signal intensity, mean value [2]: 82%; Relative TMRM signal intensity, mean value [3]: 119%"
O=C(C[n+]1ccc(NCc2ccccc2)cc1)c1ccc(C(F)(F)F)cc1 [AB24809A],2430,2430,3030,1770,7640,> 50000,> 50000,> 50000,37500,6.64,
